Source: patent US7659275B2, “Piperidinyl piperazine derivatives useful as inhibitors of chemokine receptors” (priority 2005, dated 2010)

Experiments:
[1] = test system: HIV-1 YU-2 luciferase reporter virus in U87-CD4-CCR5 cells; experiment: Luciferase Replication assay (HIV replication); format: cell-based; details: Human immunodeficiency virus 1, U87/CD4/CCR5, 72 h, read-out: HIV Replication IC50 luciferase (nM, Yu-2)
Description: Luciferase Replication Assay:
Plasmids encoding the full length genome of HIV-1 pNL-4-Luc with the gp 120 V-3 loop replaced by the Bgl II fragment of HIV-1 ADA, YU-2 or HxB (ADA-Luc-FL, YU-2-Luc-FL and HxB-Luc-FL) were obtained from Dr. Susan Pontow (Washington University, St. Louis Mo.). Replication-competent luciferase reporter virus stocks were generated by transfection of plasmids into 293T cells using Superfect (Qiagen) or Mirus transfection reagents. Viral stocks were collected 48 hours following transfection and titered for luciferase production on U-87-CCR5 or CXCR4 cells. U87-CD4-CCR5 cells ([…]) were plated in 96-well cell culture plates and incubated overnight. Media was removed and replaced with 50 μl of fresh culture media (DMEM, 10% FCS) and 50 μl of compound diluted in culture medium. Cells were incubated with compound at 37° C. for 1 hour. The resultant supernatant was removed and replaced with 20 μl of media containing compound and infected with an equal volume of diluted or undiluted virus stock at 37° C. for 3-4 hours. The cells were washed once with DMEM, and 200 μl of media containing compound was added. The cultures were incubated for 3 days, the cells lysed in luciferase lysis buffer (Promega, Madison, Wis.) and transferred to Immulon plates (Dynex Technologies, Chantilly Va.). An equal volume of luciferase substrate (Promega, Madison Wis.) was added to lysates and the plates read immediately in a Wallac Luminometer. Fifty and ninety percent inhibitory concentrations were determined using GraphPad PRISM software.

| SMILES | melting point [°C] | IC50 [1] [nM] |
| --- | --- | --- |
| Cc1nn(O)c(C)c1C(=O)N1CCC(C)(N2CCN([C@@H](c3cccc(F)c3)C3CCN(S(=O)(=O)C4CC4)CC3)[C@@H](C)C2)CC1 | 214 to 215 | 43 |
| CC[C@@H](c1ccc(C(F)(F)F)cc1)N1CCN(C2(C)CCN(C(=O)c3c(C)nn(O)c3C)CC2)C[C@@H]1C | – | > 100 |
| COC[C@@H](c1ccc(C(F)(F)F)cc1)N1CCN(C2(C)CCN(C(=O)c3c(C)nn(O)c3C)CC2)C[C@@H]1C | – | 8 |
| COC[C@@H](c1ccc(C(F)(F)F)cc1)N1CCN(C2(C)CCN(C(=O)c3c(C)nn(OCc4ccccc4)c3C)CC2)C[C@@H]1C | – | 0.4 |
